{"source": "paper PMC3691182", "about": "(PLoS ONE, 2013)", "key": {"[1]": {"system": "TTX-S voltage-gated sodium channel of DRG neurons", "assay": "Whole-cell patch-clamp, inhibition of TTX-S sodium currents in DRG neurons", "assay_type": "cell-based, adult Sprague-Dawley rat"}, "[2]": {"system": "TTX-R sodium channel of DRG neurons", "assay": "Whole-cell patch-clamp, TTX-R sodium currents in DRG neurons", "assay_type": "cell-based, adult Sprague-Dawley rat"}, "[3]": {"system": "TTX-S sodium channels in rat DRG neurons", "assay": "Time course for block of TTX-S currents and reversal of block on washing", "assay_type": "cell-based"}, "[4]": {"system": "TTX-S sodium channels in rat DRG neurons", "assay": "Current-voltage relationship, conductance, steady-state activation and inactivation of TTX-S sodium channel", "assay_type": "cell-based"}, "Nav1.7": {"system": "Nav1.7", "assay": "Triple-pulse protocol, recovery of Nav1.7 current following strong depolarization (HEK293 cells)", "assay_type": "cell-based"}, "[5]": {"system": "neuronal TTX-sensitive voltage-gated sodium channels", "details": "cited from earlier work"}, "[6]": {"system": "TTX-resistant voltage-gated sodium channels", "details": "in words; reference not given; cited from earlier work", "text": "Previous research has identified nearly 150 of these components in the Chinese bird spider, Ornithoctonus huwena, which is one of the most venomous spiders in China. Most of the toxins have six cystine residues adopting inhibitor cystine-knot (ICK) motif with a 1–4, 2–5, 3–6 disulfide bonding pattern; the biological activities of some peptide toxins were thoroughly investigated."}, "sodium channel": {"system": "sodium channel", "details": "cited from earlier work", "text": "Huwentoxin-IV (HWTX-IV), a tetrodotoxin-sensitive (TTX-s) sodium channel antagonist, is found in the venom of the Chinese spider Ornithoctonus huwena. A naturally modified HWTX-IV (mHWTX-IV), having a molecular mass 18 Da lower than HWTX-IV, has also been isolated from the venom of the same spider. […] Previous research has identified nearly 150 of these components in the Chinese bird spider, Ornithoctonus huwena, which is one of the most venomous spiders in China. […] To address this question, we adopted a triple-pulse protocol in which a test pulse (−10 mV) following a strong depolarization (+200 mV, 500 ms) was used to measure available TTX-S sodium currents."}, "domain II of Nav1.7": {"system": "domain II of Nav1.7", "details": "in words; ref [11]; cited from earlier work"}, "DRG neuron": {"system": "DRG neuron", "design": "method as in PMID 16267209, PMID 19409400", "details": "in words; ref [27], [28]; cited from earlier work"}}, "note": "“Also recorded” adds a separate entry of the source. Like-named read-outs stand apart in the source and are kept apart here.", "data": [{"substance": "Huwentoxin-IV [HWTX-IV]", "values": [{"measurement": "IC50", "setting": "[1]", "value": "42.9 ± 1.72", "unit": "nM"}, {"measurement": "Inhibition of TTX-S currents", "setting": "[1]", "value": "almost completely inhibited; also recorded: significantly reduced"}, {"measurement": "Effect on TTX-R sodium currents", "setting": "[2]", "value": "no effect"}, {"measurement": "Dissociation after washing, in words", "setting": "[3]", "value": "slowly dissociated"}, {"measurement": "Time course for inhibition of TTX-S currents", "setting": "[3]", "value": 25.4, "unit": "s"}, {"measurement": "Time course of dissociation after washing", "setting": "[3]", "value": 88.3, "unit": "s"}, {"measurement": "Channel conductance (conductance–voltage curve)", "setting": "[4]", "value": "did not change channel conductance"}, {"measurement": "Steady-state activation and inactivation, comparison of HWTX-IV and mHWTX-IV", "setting": "[4]", "value": "no obvious difference"}, {"measurement": "Steady-state inactivation of TTX-S sodium channel", "setting": "[4]", "value": "No shift of the steady-state inactivation curve"}, {"measurement": "Threshold of activation and reversal potential of TTX-S sodium channel (I–V)", "setting": "[4]", "value": "did not change the threshold of activation and alter the reversal potential"}, {"measurement": "Recovery of Nav1.7 current, +50 mV", "setting": "Nav1.7; 1 µM toxin, HEK293 cells, +50 mV for 500 ms, in words", "value": "little recovery"}, {"measurement": "Recovery of Nav1.7 current, +100 mV", "setting": "Nav1.7; 1 µM toxin, HEK293 cells, +100 mV for 500 ms, in words", "value": "little recovery"}, {"measurement": "Recovery of Nav1.7 current, +150 mV", "setting": "Nav1.7; 1 µM toxin, HEK293 cells, +150 mV, five cells", "value": "about 34%"}, {"measurement": "Recovery of Nav1.7 current, +200 mV", "setting": "Nav1.7; 1 µM toxin, HEK293 cells, +200 mV, five cells", "value": "~78", "unit": "%"}, {"measurement": "Recovery of Nav1.7 current by extreme depolarization (summary)", "setting": "Nav1.7; abstract summary, in words", "value": "voltage-dependent and was induced by extreme depolarization"}, {"measurement": "Inhibition of TTX-S sodium channel in DRG neurons (literature)", "setting": "[5]", "value": "specifically inhibited"}, {"measurement": "IC50", "setting": "[5]; read-out: IC50, inhibition of neuronal TTX-sensitive sodium channels (literature)", "value": 30, "unit": "nM"}, {"measurement": "Effect on TTX-resistant sodium channels (literature)", "setting": "[6]", "value": "no significant effect"}, {"measurement": "Dissociation at moderate depolarization", "setting": "sodium channel", "value": "dissociates at moderate voltage depolarization voltages"}, {"measurement": "Reversal of binding to sodium channels by strong depolarization (literature)", "setting": "sodium channel", "value": "can be reversed by strong depolarization"}, {"measurement": "Reversibility of inhibition by strong depolarization (literature)", "setting": "sodium channel", "value": "reversible by strong depolarization"}, {"measurement": "Voltage above which currents can be observed (dissociation by strong depolarization)", "setting": "sodium channel", "value": "> 70", "unit": "mV"}, {"measurement": "Binding site on Nav1.7", "setting": "domain II of Nav1.7", "value": "binds with the S3–S4 linker D816 and E818 in domain II of Nav1.7 by electrostatic interaction"}]}, {"substance": "Jingzhaotoxin-IX [JZTX-IX]", "values": [{"measurement": "Action under extreme depolarization on DRG neuron compared with mHWTX-IV", "setting": "DRG neuron", "value": "similar"}]}, {"substance": "ProTx-II", "values": [{"measurement": "Reversal of binding to sodium channels by strong depolarization (literature)", "setting": "sodium channel; in words, ref [11], [19], [20]", "value": "can be reversed by strong depolarization"}]}, {"substance": "jingzhaotoxin-34 [JZTX-34]", "values": [{"measurement": "Inhibition of neuronal TTX-sensitive sodium channels (literature)", "setting": "[5]; in words, ref [9]", "value": "inhibited neuronal TTX-sensitive voltage-gated sodium channels"}]}]}
